Experimental data reported in the supplement of paper PMC10307832.

Experiments:
Assay in all cases: relative viability (nuclei count vs DMSO), 5 days (fraction); higher = more cells survive
BGJ398 + Olaparib = compound: CCN1CCN(c2ccc(Nc3cc(N(C)C(=O)Nc4c(Cl)c(OC)cc(OC)c4Cl)ncn3)cc2)CC1 [BGJ398] + O=C(c1cc(Cc2n[nH]c(=O)c3ccccc23)ccc1F)N1CCN(C(=O)C2CC2)CC1 [Olaparib] (partner 8 µM)
Outline: (§1)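 One day after seeding in 1536-well plates, lung cancer cell lines were dosed by pin tool. Dosing was either single-drug or a fixed anchor-drug dose plus five library-drug doses (not always all listed) in √10 steps. After 5 days, nuclei were stained in one fix-and-stain step and counted on 4× images, and relative viability is the nuclei count of treated wells over that of vehicle wells, given as the median of duplicate plates.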

[1] = compound: C1=CC2=NC=CN=C2C=C1/C=C/3\C(=O)NC(=O)S3 + CS(=O)(=O)CCNCc1ccc(-c2ccc3ncnc(Nc4ccc(OCc5cccc(F)c5)c(Cl)c4)c3c2)o1 [Lapatinib] (partner 2 µM)
Outline: as §1

BGJ398 + Tozasertib = compound: CCN1CCN(c2ccc(Nc3cc(N(C)C(=O)Nc4c(Cl)c(OC)cc(OC)c4Cl)ncn3)cc2)CC1 [BGJ398] + Cc1cc(Nc2cc(N3CCN(C)CC3)nc(Sc3ccc(NC(=O)C4CC4)cc3)n2)n[nH]1 [Tozasertib] (partner 0.1 µM)
Outline: as §1

BGJ398 + Alpelisib = compound: CCN1CCN(c2ccc(Nc3cc(N(C)C(=O)Nc4c(Cl)c(OC)cc(OC)c4Cl)ncn3)cc2)CC1 [BGJ398] + Cc1nc(NC(=O)N2CCC[C@H]2C(N)=O)sc1-c1ccnc(C(C)(C)C(F)(F)F)c1 [Alpelisib] (partner 2 µM)
Outline: as §1

| Cell Line | relative viability (BGJ398 + Olaparib; first compound 0.01 µM) | relative viability (BGJ398 + Olaparib; first compound 0.03162 µM) | relative viability (BGJ398 + Olaparib; first compound 0.1 µM) | relative viability (BGJ398 + Olaparib; first compound 0.3162 µM) | relative viability (BGJ398 + Olaparib; first compound 1 µM) | relative viability ([1]; first compound 0.02 µM) | relative viability ([1]; first compound 0.06325 µM) | relative viability ([1]; first compound 0.2 µM) | relative viability ([1]; first compound 0.6325 µM) | relative viability ([1]; first compound 2 µM) | relative viability (BGJ398 + Tozasertib; first compound 0.01 µM) | relative viability (BGJ398 + Tozasertib; first compound 0.03162 µM) | relative viability (BGJ398 + Tozasertib; first compound 0.1 µM) | relative viability (BGJ398 + Tozasertib; first compound 0.3162 µM) | relative viability (BGJ398 + Tozasertib; first compound 1 µM) | relative viability (BGJ398 + Alpelisib; first compound 0.01 µM) | relative viability (BGJ398 + Alpelisib; first compound 0.03162 µM) | relative viability (BGJ398 + Alpelisib; first compound 0.1 µM) | relative viability (BGJ398 + Alpelisib; first compound 0.3162 µM) | relative viability (BGJ398 + Alpelisib; first compound 1 µM) |
| --- | --- | --- | --- | --- | --- | --- | --- | --- | --- | --- | --- | --- | --- | --- | --- | --- | --- | --- | --- | --- |
| NCI-H2228 | 0.606 | 0.765 | 0.512 | 0.594 | 0.441 | 0.946 | 1.15 | 0.97 | 0.903 | 0.932 | 0.235 | 0.255 | 0.224 | 0.188 | 0.204 | 0.609 | 0.616 | 0.776 | 0.718 | 0.696 |
| NCI-H2347 | 0.539 | 0.546 | 0.553 | 0.631 | 0.63 | 0.886 | 0.88 | 1 | 0.79 | 0.852 | 0.698 | 0.575 | 0.515 | 0.621 | 0.567 | 1.01 | 1.04 | 1.01 | 1.13 | 1.08 |
| NCI-H2405 | 0.818 | 0.954 | 0.926 | 0.923 | 0.768 | 1.24 | 1.39 | 1.13 | 1.11 | 0.323 | 0.727 | 0.812 | 0.712 | 0.727 | 0.712 | 0.723 | 0.932 | 0.831 | 0.79 | 0.875 |
| NCI-H3122 | 0.628 | 0.611 | 0.661 | 0.596 | 0.654 | 1.09 | 1.03 | 1.04 | 0.988 | 0.972 | 0.383 | 0.403 | 0.377 | 0.407 | 0.379 | 0.835 | 0.844 | 0.763 | 0.717 | 0.832 |
| PC-3 [JPC-3] | 1.12 |  | 1.26 |  | 1.15 | 0.481 | 0.559 | 0.454 | 0.439 | 0.441 | 0.958 |  | 0.867 | 0.829 | 0.842 | 1.05 |  | 1.04 | 0.948 | 0.973 |
| PC-14 | 0.322 | 0.346 | 0.254 | 0.289 | 0.27 | 0.326 | 0.316 | 0.284 | 0.348 | 0.24 | 0.575 |  | 0.666 |  | 0.621 | 0.824 | 0.845 | 0.98 | 0.958 | 0.938 |
| RERF-LC-KJ | 0.961 | 0.959 | 0.969 | 0.917 | 0.92 | 0.729 | 0.923 | 0.842 | 0.759 | 0.689 | 0.455 | 0.558 | 0.479 | 0.441 | 0.533 | 0.922 | 0.85 | 0.816 | 0.833 | 0.79 |
| SK-LU-1 | 0.461 | 0.579 | 0.539 | 0.348 | 0.329 | 0.834 | 0.977 | 0.891 | 1.01 | 0.693 | 0.354 | 0.34 | 0.312 | 0.284 | 0.222 | 0.939 | 0.885 | 1.02 | 0.971 | 0.796 |
| SK-MES-1 | 0.709 | 0.754 | 0.786 | 0.659 | 0.679 | 0.374 | 0.656 | 0.486 | 0.397 | 0.406 | 0.87 | 0.892 | 0.829 | 0.785 | 0.857 | 0.826 | 1 | 0.815 | 0.866 | 0.57 |
| SW 1573 | 0.413 | 0.388 | 0.45 | 0.543 | 0.525 | 1.09 | 1.36 | 0.982 | 0.928 | 0.978 | 0.182 | 0.171 | 0.185 | 0.189 | 0.171 | 0.689 | 0.961 | 0.765 | 0.761 | 0.789 |
